Measured values reported in patent US6635641B2 (Agouron Pharmaceuticals, Inc., priority 2000, dated 2003).
Structures can show the parent of a compound that is named as a salt. Where two headings read alike, the source gives them in different places.

How the values were obtained:
[1] = target: T1, phosphorylated VEGF-R2Δ50 (FLVK-P) (Homo sapiens, UniProt P35968, DEL940-989/E990V); assay: VEGF-R2 coupled spectrophotometric assay, phosphorylated construct (FLVK-P); assay type: biochemical; conditions: for inhibition at 0.05 µM: @ 50 nM, read-out: FLVK-P percent inhibition
T1 construct: VEGF-R2Δ50 contains residues 806-939 and 990-1171; made in house; host or cells: baculovirus/insect cells
Outline: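 Baculovirus-expressed VEGF-R2Δ50 (residues 806-939/990-1171, E990V), optionally autophosphorylated; ADP formation coupled via PK/LDH to NADH oxidation at 340 nm, pH 7.5 Hepes. FLVK-P: 1 mM ATP, 5.1 mM poly(E4Y1), 25 mM MgCl2; FLVK: 3 mM ATP, 20 mM poly(E4Y1), 60 mM MgCl2, 2 mM MnCl2. Ki from activity over compound concentrations.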

[2] = target: T2, unphosphorylated VEGF-R2Δ50 (FLVK) (Homo sapiens, UniProt P35968, DEL940-989/E990V); assay: VEGF-R2 coupled spectrophotometric assay, unphosphorylated construct (FLVK); assay type: biochemical; conditions: for inhibition at 0.05 µM: @ 50 nM, read-out: FLVK percent inhibition;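 on all read-outs here: Baculovirus-expressed cytosolic kinase domain, ADP formation linked via pyruvate kinase and lactate dehydrogenase to NADH oxidation, read as falling absorbance at 340 nm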
T2 construct: VEGF-R2Δ50 contains residues 806-939 and 990-1171; made in house; host or cells: baculovirus/insect cells

[3] = target: T3, FGF-R1 intracellular kinase domain (Homo sapiens, UniProt P11362, C488A/C584S/L457V); assay: FGF-R spectrophotometric assay; assay type: biochemical; conditions: for inhibition at 1 µM: read-out: FGF-P percent inhibition;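 on all read-outs here: coupled PK/LDH enzyme assay: ADP from kinase phosphoryl transfer drives NADH oxidation, read as absorbance decrease at 340 nm, with 2 mM ATP and poly(E4Y1) substrate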
T3 construct: starting from the endogenous methionine residue 456 to glutamate 766; made in house; host or cells: baculovirus expression system

LCK tyrosine kinase = target: T4, LCK tyrosine kinase (Homo sapiens, UniProt P06239, C224D/P223M); assay: LCK spectrophotometric assay; assay type: biochemical;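 further: recombinant LCK kinase activity on poly(E4Y1), ADP formation coupled through PK/LDH to NADH oxidation, followed as absorbance loss at 340 nm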
T4 construct: starting from amino acid residue 223 to the end of the protein at residue 509; made in house; host or cells: insect cells

[4] = test system: human umbilical vein endothelial cells (HUVEC); assay: HUVEC proliferation assay (VEGF-stimulated, MTT); assay type: cell-based; conditions: Homo sapiens
Outline: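 Exponentially growing HUVEC (passage 3-4) were serum-starved 24 h in F12K + 1% FBS, given test compound (final DMSO 0.1%), then stimulated 1 h later with VEGF at 6 ng/ml final. Proliferation read after 72 h by 4 h MTT dye reduction, absorbance at 595.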

[5] = test system: lung cancer cells (line MV522); assay: Cancer cell proliferation (MV522) assay (MTT); assay type: cell-based
Description: The protocol for assessing cellular proliferation in cancer cells is similar to that used for assessments in HUVEC cells. Two thousand lung cancer cells (line MV522, acquired from American Tissue Cultural Collection) were seeded in growth media (RPMI1640 medium supplemented with 2 mM glutamine and 10% FBS). Cells are allowed to attach for 1 day prior to addition of test agents and/or vehicles. Cells are treated simultaneously with the same test agents used in the HUVEC assay. Cellular proliferation is quantified by MTT dye reduction assay 72 hours after exposure to test agents. The total length of the assay is 4 days vs. 5 for HUVEC cells because MV522 cells are not exposed to starvation medium.

[6] = unphosphorylated VEGF-R2 construct
[7] = read-out: LCK-P percent inhibition
[8] = HUVEC proliferation with albumin, read-out: Huvec + Albumin IC50
[9] = HUVEC, with albumin, read-out: Huvec + Albumin IC50
[10] = VEGF-stimulated HUVEC proliferation, read-out: HUVEC IC50

T3 sequence (P11362 456-766 L457V/C488A/C584S): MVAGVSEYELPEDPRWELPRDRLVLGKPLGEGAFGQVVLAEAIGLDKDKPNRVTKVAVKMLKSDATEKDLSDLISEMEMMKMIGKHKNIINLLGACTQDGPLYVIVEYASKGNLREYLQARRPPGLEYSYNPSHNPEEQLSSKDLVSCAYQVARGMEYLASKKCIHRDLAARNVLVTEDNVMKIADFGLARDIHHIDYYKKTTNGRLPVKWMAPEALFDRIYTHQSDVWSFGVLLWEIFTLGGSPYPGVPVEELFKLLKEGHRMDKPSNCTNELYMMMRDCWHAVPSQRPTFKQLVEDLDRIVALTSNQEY
T2 sequence (P35968 with tags, fused parts or gaps DEL940-989/E990V limits assumed): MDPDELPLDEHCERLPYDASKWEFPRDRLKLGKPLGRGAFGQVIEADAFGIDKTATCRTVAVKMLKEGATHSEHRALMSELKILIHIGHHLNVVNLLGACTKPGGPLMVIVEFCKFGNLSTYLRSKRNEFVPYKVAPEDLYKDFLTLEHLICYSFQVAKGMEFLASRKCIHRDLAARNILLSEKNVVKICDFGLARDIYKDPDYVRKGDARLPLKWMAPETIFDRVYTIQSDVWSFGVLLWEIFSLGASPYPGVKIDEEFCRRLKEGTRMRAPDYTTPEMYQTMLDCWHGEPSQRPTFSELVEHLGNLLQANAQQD
T1 sequence (P35968 with tags, fused parts or gaps DEL940-989/E990V limits assumed): as above
T4 sequence (P06239 223-509 P223M/C224D): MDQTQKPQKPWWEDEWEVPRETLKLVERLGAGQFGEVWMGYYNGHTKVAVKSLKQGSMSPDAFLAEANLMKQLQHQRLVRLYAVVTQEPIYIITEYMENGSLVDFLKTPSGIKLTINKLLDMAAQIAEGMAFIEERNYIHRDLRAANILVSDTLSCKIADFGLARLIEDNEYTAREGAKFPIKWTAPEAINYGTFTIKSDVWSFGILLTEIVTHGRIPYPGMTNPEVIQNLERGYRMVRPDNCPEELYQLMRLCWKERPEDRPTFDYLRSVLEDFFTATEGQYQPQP

| inhibition at 1 µM [3] [%] | inhibition at 1 µM (LCK tyrosine kinase; [7]) [%] | Ki [1] [nM] | Ki [2] [nM] | IC50 ([5]; MV522) [nM] | melting point [°C] | SMILES | IC50 ([4]; HUVEC, read-out: HUVEC IC50) [nM] | further results |
| --- | --- | --- | --- | --- | --- | --- | --- | --- |
| 39 | 44 |  |  |  |  | CC(=O)Nc1ccc(CCc2cccc(C(=O)Nc3ccc(N4CCNCC4)c(C(F)(F)F)c3)c2)cn1 [AA-1, 3-[2-(6-Acetylamino-pyridin-3-yl)-ethyl]-N-(4-piperazin-1-yl-3-trifluoromethylphenyl)-benzamide dihydrochloride] |  | inhibition at 0.05 µM [1]: 59%; Ki [2, 6]: 2.8 nM; IC50 [4, 8]: 25 nM |
|  |  | 32 | 4.5 | > 10000 | 69 to 73 | Cc1cc(NC(=O)c2cccc(CSc3cnccn3)c2)ccc1C(C)C [Example A-3, N-(4-Isopropyl-3-methylphenyl)-3-[(pyrazin-2-yl)sulfanylmethyl]benzamide] | 240 |  |
|  |  | 8.64 | 1 | > 10000 | 187 to 189 | Cc1cc(NC(=O)c2cccc(CSc3ncnc4[nH]ncc34)c2)ccc1C(C)C [Example A-5, N-(4-Isopropyl-3-methylphenyl)-3-[(1H-pyrazolo[3,4-d]pyrimidin-4-yl)sulfanylmethyl]benzamide] | 270 | inhibition at 5 µM (LCK tyrosine kinase; @ 5 μM, read-out: LCK-P percent inhibition): 37% |
|  |  | 111 | 25 |  |  | COc1cc(NC(=O)c2cccc(CSc3ncnc4[nH]ncc34)c2)cc(OC)c1OC [Example B-1, N-(3,4,5-Trimethoxyphenyl)-3-[(1H-pyrazolo[3,4-d]pyrimidin-4-yl)sulfanylmethyl]benzamide] |  | Ki ([3]; read-out: FGF-P Ki): 87000 nM |
|  |  | 14.7 |  | > 10000 | 99 to 101 | Cc1ccc2cc(NC(=O)c3cccc(SCc4cc(-c5ccccc5)n[nH]4)c3)ccc2n1 [Example F-2] | 650 |  |
| 18 | 19 |  |  | 2600 |  | C/C=C/c1cc(COc2cc(C(=O)Nc3ccc(N4CCCC4)c(C(F)(F)F)c3)ccc2F)[nH]n1 [Example F-4, 4-Fluoro-3-[{5-((E)-1-propenyl)-2H-pyrazol-3-yl}methoxy]-N-[4-(pyrrolidin-1-yl)-3-trifluoromethylphenyl]benzamide] | 63 |  |
| 81 |  | 0.592 |  | > 10000 |  | CNS(=O)(=O)c1ccc(Nc2cc(CCc3cccc(C(=O)Nc4ccc(C(C)C)c(C)c4)c3)[nH]n2)cc1 [Example G-1, N-(4-Isopropyl-3-methyl-phenyl)-3-{2-[5-(4-(methylsulfamoyl)phenylamino)-2H-pyrazol-3-yl]-ethyl}-benzamide] | 10 | Ki (LCK tyrosine kinase; read-out: LCK-P Ki): 90 nM; IC50 [4, 9]: 435 nM |
|  |  | 1.78 |  | > 10000 | 98 to 102 | Cc1ccc2cc(NC(=O)c3cccc(CCc4cc(Nc5ccccc5)n[nH]4)c3)ccc2n1 [Example G-2, N-(2-Methylquinolin-6-yl)-3-[2-(5-phenylamino-2H-pyrazol-3-yl)ethyl]benzamide] | 120 |  |
| 61 | 38 |  | 1.6 |  |  | COc1ccc(Nc2cc(COc3cc(C(=O)Nc4ccc(-n5ccnc5)c(C(F)(F)F)c4)ccc3F)[nH]n2)cn1 [Example J-1, 4-Fluoro-N-[4-(imidazol-1-yl)-3-trifluoromethylphenyl]-3-[5-(6-methoxypyridin-3-yl)amino-2H-pyrazol-3-ylmethoxy]-benzamide] | 37 |  |
| 54 | 44 |  | 0.92 |  |  | COc1cc(NC(=O)c2ccc(F)c(OCc3cc(Nc4ccc(OC)nc4)n[nH]3)c2)cc(C(F)(F)F)c1 [Example J-3, 4-Fluoro-3-[5-(6-methoxypyridin-3-yl)amino-2H-pyrazol-3-yl]methoxy-N-(3-methoxy-5-trifluoromethyl-phenyl)-benzamide] | 50 |  |
|  |  |  |  | > 10000 | 98 to 101 | CC(=O)Nc1ccc(COc2cccc(C(=O)Nc3ccc(C(C)C)c(C)c3)c2)cn1 [Example N-2, 3-(6-Acetylaminopyridin-3-yl)methoxy-N-(4-Isopropyl-3-methyl-phenyl)-benzamide] | > 100 | inhibition at 0.05 µM [2]: 8% |
|  |  |  |  |  | 125 to 131 | COc1cccc(/C=N/Nc2ncc(COc3cccc(C(=O)Nc4ccc(C(C)C)c(C)c4)c3)c3ccccc23)c1 [Example Q-1, N-(4-Isopropyl-3-methyl-phenyl)-3-{1-[N′-(3-methoxy-benzylidene)-hydrazino]-isoquinolin-4-ylmethoxy}-benzamide] | 100 to 300 | inhibition at 0.05 µM [1]: 17% |
|  |  |  | 2.3 | 5600 | 81 to 84 | O=C(Nc1ccc(N2CCOCC2)c(C(F)(F)F)c1)c1ccc(F)c(OCc2cnc3ccccc3c2)c1 [Example R-16, 4-Fluoro-N-(4-morpholin-4-yl-3-trifluoromethyl-phenyl)-3-(quinolin-3-ylmethoxy)-benzamide] | 13 |  |
|  |  |  | 3.1 | > 10000 | 209 to 211 | O=C(Nc1cc(Cl)c(N2CCOCC2)c(Cl)c1)c1ccc(F)c(OCc2cccnc2)c1 [Example R-18, N-(3,5-Dichloro-4-morpholin-4-yl-phenyl)-4-fluoro-3-(pyridin-3-ylmethoxy)-benzamide] | 18 |  |
|  |  |  | 13.9 | 1700 | 81 to 85 | O=C(Nc1cc(Cl)c(N2CCNCC2)c(Cl)c1)c1ccc(F)c(OCc2cccnc2)c1 [Example R-19, N-(3,5-Dichloro-4-piperazin-1-yl-phenyl)-4-fluoro-3-(pyridin-3-ylmethoxy)-benzamide] | 64 |  |
|  |  |  |  | 2600 | 61 to 66 | CN1CCN(c2ccc(NC(=O)c3ccc(F)c(OCc4cccnc4)c3)cc2C(F)(F)F)CC1 [Example R-20] | 155 | inhibition at 0.05 µM [2]: 19% |
| 21 | 13 |  |  |  |  | O=C(Nc1ccc(-n2cccn2)c(C(F)(F)F)c1)c1ccc(F)c(OCc2cccnc2)c1 [Example R-22, 4-Fluoro-N-(4-pyrazol-1-yl-3-trifluoromethyl-phenyl)-3-(pyridin-3-ylmethoxy)-benzamide] |  | inhibition at 0.05 µM [2]: 52%; IC50 [4, 9]: > 100 nM |
|  |  | 12.4 |  | > 10000 | 143 to 144 | Cc1cc(NC(=O)c2cccc(CCc3cccnc3)c2)ccc1C(C)C [Example U-2, N-(4-Isopropyl-3-methyl-phenyl)-3-(2-pyridin-3-yl-ethyl)-benzamide] | 100 |  |
|  |  |  |  |  | 138 to 140 | O=C(Nc1cccc(OCc2cccnc2)c1)N1CCCC1 [Example Y-1, 1-[3-(pyridin-3-ylmethoxy)phenylcarbamoyl]pyrrolidine] |  | inhibition at 0.05 µM [2]: 6%; IC50 [4, 10]: > 700 nM |

| SMILES | inhibition at 1 µM [3] [%] | inhibition at 1 µM (LCK tyrosine kinase; [7]) [%] | Ki [1] [nM] | Ki [2] [nM] | IC50 ([5]; MV522) [nM] | melting point [°C] | IC50 ([4]; HUVEC, read-out: HUVEC IC50) [nM] | further results |
| --- | --- | --- | --- | --- | --- | --- | --- | --- |
| O=C(Nc1ccc(N2CCNCC2)c(C(F)(F)F)c1)c1ccc(F)c(OCc2cncc(-c3ccco3)c2)c1 [EE-1, 4-Fluoro-3-(5-furan-2-yl-pyridin-3-ylmethoxy)-N-(4-piperazin-1-yl-3-trifluoromethyl-phenyl)-benzamide dihydrochloride] | 32 | 53 |  |  |  |  |  | Ki [2, 6]: 3.4 nM; IC50 [4, 8]: 180 nM |
| COc1ccc(Nc2cc(CSc3cccc(NC(=O)c4ccc(O)c(C(C)(C)C)c4)c3)[nH]n2)cn1 [Example W-1, 3-t-Butyl-4-hydroxy-N-{3-[5-(6-methoxy-pyridin-3-ylamino)-2 H-pyrazol-3-ylmethylsulfanyl]-phenyl}-benzamide] | 67 | 88 |  |  |  |  |  | Ki [2, 6]: 0.12 nM; IC50 [4, 10]: 23 nM |
| CC(=O)Oc1ccc(C(=O)Nc2cccc(OCc3cccnc3)c2)cc1C(C)(C)C [Example X-2, 4-Acetoxy-3-t-butyl-N-[3-(pyridin-3-ylmethoxy)phenyl]-benzamide] |  |  |  |  |  | 58 to 62 |  | Ki [2, 6]: 9.1 nM |
| CC(=O)Oc1ccc(C(=O)Nc2cccc(OCc3cncc4ccccc34)c2)cc1C(C)(C)C [Example X-3, 4-Acetoxy-3-t-butyl-N-[3-(isoquinolin-4-ylmethoxy)phenyl]-benzamide] |  |  |  |  |  | 83 to 86 |  | Ki [2, 6]: 2.2 nM; IC50 [4, 10]: 30 to 100 nM; IC50 ([5]; MV522 lung cancer cells): 4600 nM |
